Experiment [1] deals with T1, Alpha-1D adrenergic receptor (Homo sapiens, UniProt P25100).
T1 sequence (P25100 whole entry): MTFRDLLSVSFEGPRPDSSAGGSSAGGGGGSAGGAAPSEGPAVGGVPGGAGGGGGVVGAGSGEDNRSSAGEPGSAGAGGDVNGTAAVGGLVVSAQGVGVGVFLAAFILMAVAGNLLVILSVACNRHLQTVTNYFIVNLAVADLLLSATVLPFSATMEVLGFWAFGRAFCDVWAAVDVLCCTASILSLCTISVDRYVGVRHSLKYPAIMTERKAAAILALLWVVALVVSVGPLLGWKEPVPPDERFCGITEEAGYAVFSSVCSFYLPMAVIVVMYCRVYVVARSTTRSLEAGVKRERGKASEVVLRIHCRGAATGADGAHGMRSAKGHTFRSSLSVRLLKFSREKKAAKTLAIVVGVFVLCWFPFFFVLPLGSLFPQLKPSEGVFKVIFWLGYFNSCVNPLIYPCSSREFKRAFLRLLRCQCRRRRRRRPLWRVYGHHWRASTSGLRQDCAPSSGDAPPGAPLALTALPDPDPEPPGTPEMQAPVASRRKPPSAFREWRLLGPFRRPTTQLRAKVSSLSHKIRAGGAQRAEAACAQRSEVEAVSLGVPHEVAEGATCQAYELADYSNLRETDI
The format is cell membranes, HEK293, Membrane.

A short description of experiment [2]: DRUGMATRIX: Tumor Necrosis Factor (TNF), Non-Selective radioligand binding (ligand: [125I] TNF-alpha). The format is cell membranes, Membrane. The note with it: u-937; Not Active = under 50% inhibition at 10 µM.
The target of experiment [3] is T2, Cholecystokinin receptor type A (Homo sapiens, UniProt P32238). Also: in other assays of this panel Not Active means under 50% inhibition at 10 µM.
T2 sequence (P32238 whole entry): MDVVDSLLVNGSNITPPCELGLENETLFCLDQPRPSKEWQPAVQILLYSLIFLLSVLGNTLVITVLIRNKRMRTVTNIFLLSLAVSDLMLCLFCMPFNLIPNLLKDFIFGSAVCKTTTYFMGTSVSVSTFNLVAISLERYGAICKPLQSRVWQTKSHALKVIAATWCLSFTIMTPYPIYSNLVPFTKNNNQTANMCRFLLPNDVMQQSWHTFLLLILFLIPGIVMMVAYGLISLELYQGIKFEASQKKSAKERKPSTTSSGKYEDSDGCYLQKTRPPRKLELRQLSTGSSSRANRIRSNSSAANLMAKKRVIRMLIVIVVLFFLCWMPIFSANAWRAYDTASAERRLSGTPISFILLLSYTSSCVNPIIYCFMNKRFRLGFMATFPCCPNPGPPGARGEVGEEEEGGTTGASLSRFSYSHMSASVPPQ
The format is cell membranes, Membrane. The note with it: 1321-n1.

Experiment [4] can be described thus: DRUGMATRIX: Glutamate, NMDA, Agonism radioligand binding (ligand: [3H] CGP-39653). The format is cell membranes, Rattus norvegicus, Wistar, Cerebral cortex, Membrane. The following applies: Not Active = under 50% inhibition at 10 µM.
Another experiment addresses Histamine H2 receptor (Homo sapiens, UniProt P25021). It is filed as cell membranes, CHO-K1, Membrane. The note with it: for Ki: read-out: Ki.
The target of experiment [5] is Mitogen-activated protein kinase 1 (Homo sapiens, UniProt P28482). Kind of experiment: DRUGMATRIX: Protein Serine/Threonine Kinase, ERK2 enzyme inhibition (substrate: Myelin Basic Protein). Further details: species or system Escherichia coli. The following applies: Not Active = under 50% inhibition at 10 µM.
The target in another experiment is T3, Glucocorticoid receptor (Homo sapiens, UniProt P04150). Also: in other assays of this panel Not Active means under 50% inhibition at 10 µM.
T3 sequence (P04150 whole entry): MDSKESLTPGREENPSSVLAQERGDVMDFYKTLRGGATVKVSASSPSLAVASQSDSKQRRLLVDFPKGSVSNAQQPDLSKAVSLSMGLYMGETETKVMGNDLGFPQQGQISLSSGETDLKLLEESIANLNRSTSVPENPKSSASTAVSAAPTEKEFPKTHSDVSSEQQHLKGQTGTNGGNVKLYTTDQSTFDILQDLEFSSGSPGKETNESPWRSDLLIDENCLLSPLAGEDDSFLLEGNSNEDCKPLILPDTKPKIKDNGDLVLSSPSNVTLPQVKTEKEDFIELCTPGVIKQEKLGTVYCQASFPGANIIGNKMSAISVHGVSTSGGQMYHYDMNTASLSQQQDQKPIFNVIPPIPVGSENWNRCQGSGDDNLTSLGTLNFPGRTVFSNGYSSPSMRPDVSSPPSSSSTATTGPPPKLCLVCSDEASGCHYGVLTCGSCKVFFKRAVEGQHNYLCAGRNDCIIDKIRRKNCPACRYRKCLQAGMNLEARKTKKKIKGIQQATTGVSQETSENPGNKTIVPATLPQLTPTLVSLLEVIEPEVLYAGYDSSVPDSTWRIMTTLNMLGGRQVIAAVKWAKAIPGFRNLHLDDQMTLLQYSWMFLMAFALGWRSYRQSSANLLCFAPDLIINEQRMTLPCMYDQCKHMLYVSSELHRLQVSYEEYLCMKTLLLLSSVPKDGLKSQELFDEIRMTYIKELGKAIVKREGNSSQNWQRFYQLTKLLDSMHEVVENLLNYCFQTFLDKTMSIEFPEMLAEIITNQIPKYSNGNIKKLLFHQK
The following applies: hela s3.

The IC50 is the midpoint of a concentration-inhibition curve. As a reminder, the Ki is the equilibrium dissociation constant of an inhibitor or competing ligand from its target.

Sequence of Mitogen-activated protein kinase 1 (P28482 whole entry): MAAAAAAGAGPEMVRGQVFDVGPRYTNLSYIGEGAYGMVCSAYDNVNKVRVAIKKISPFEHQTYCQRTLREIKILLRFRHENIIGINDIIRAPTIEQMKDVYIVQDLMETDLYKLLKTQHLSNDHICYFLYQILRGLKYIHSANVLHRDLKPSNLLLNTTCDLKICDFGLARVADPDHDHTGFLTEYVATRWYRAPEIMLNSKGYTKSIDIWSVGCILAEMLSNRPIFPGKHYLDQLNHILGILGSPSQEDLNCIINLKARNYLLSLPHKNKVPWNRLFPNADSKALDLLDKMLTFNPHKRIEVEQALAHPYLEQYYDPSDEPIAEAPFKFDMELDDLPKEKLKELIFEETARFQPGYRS
Sequence of Histamine H2 receptor (P25021 whole entry): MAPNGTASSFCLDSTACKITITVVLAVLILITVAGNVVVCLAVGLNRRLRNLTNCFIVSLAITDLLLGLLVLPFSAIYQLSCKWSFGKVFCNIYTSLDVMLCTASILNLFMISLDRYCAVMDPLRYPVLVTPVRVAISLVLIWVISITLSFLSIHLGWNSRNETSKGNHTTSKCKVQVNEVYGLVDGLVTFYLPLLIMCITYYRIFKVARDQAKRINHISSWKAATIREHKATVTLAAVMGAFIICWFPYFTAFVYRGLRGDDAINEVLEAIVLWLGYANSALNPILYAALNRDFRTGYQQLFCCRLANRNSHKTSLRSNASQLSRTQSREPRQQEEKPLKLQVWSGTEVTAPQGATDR

Consider `COc1cc(N)nc2[nH]c(-c3ccc(F)cc3)c(-c3ccncc3)c12`, for which the IC50 result (in experiment [1] (hek293); in experiment [2]; in experiment [3]; in experiment [4]; at Histamine H2 receptor (cho-k1); in experiment [5]) was “Not Active” throughout. Besides, the IC50 result against Glucocorticoid receptor was “Not Active”. Besides, the Ki entry in experiment [2] and in experiment [4] was “Not Active” in each case.
With `CNS(=O)(=O)Cc1ccc2[nH]cc(CCN(C)C)c2c1`, the IC50 result (in experiment [1] (hek293); in experiment [2]; in experiment [3]; in experiment [4]; against Histamine H2 receptor (cho-k1); in experiment [5]) was “Not Active” throughout. The concentration for half-maximal inhibition (IC50) entry against Glucocorticoid receptor is “Not Active”. The Ki entry in experiment [2] and in experiment [4] was “Not Active” throughout.
Consider `CCCc1nn(C)c2c(=O)[nH]c(-c3cc(S(=O)(=O)N4CCN(C)CC4)ccc3OCC)nc12`, for which the IC50 entry (in experiment [1] (hek293); in experiment [2]; in experiment [3]; in experiment [4]; at Histamine H2 receptor (cho-k1); in experiment [5]) was “Not Active” each time. Besides, the IC50 entry at Glucocorticoid receptor is given as “Not Active”. For the same compound, the inhibition constant Ki entry in experiment [2] and in experiment [4] was “Not Active” in each case.
Regarding `COc1ccc(/C=C/C(=O)Nc2ccccc2C(=O)O)cc1OC`, the half-inhibitory concentration (IC50) result (in experiment [1] (hek293); in experiment [2]; in experiment [3]; in experiment [4]; against Histamine H2 receptor (cho-k1); in experiment [5]) was “Not Active” throughout. Further, the IC50 entry against Glucocorticoid receptor was “Not Active”. The Ki result in experiment [2] and in experiment [4] was “Not Active” in each case.
For `OCCN1CCN(CCCN2c3ccccc3Sc3ccc(C(F)(F)F)cc32)CC1` [FLUPHENAZINE], the concentration for half-maximal inhibition (IC50) in experiment [1] (read-out: IC50) is 33 nM; in experiment [3], “Not Active”; on Histamine H2 receptor (read-out: IC50), 1.23 µM; in experiment [5], “Not Active”; against Glucocorticoid receptor it was “Not Active”. Besides, the inhibition constant Ki in experiment [1] (read-out: Ki) came out at 16 nM; on Histamine H2 receptor, 1.2 µM.
Take `C[C@@H](O)[C@H]1C(=O)N2C(C(=O)O)=C(S[C@@H]3CN[C@H](C(=O)N(C)C)C3)[C@H](C)[C@H]12` [MEROPENEM]: the IC50 result (in experiment [1] (hek293); in experiment [2]; in experiment [3]; in experiment [4]; at Histamine H2 receptor (cho-k1); in experiment [5]) was “Not Active” throughout. Moreover, on Glucocorticoid receptor, the IC50 result is “Not Active”. Besides, the Ki result in experiment [2] and in experiment [4] was “Not Active” throughout.
As to `CCN(CC)CC#CCOC(=O)C(O)(c1ccccc1)C1CCCCC1` (centres undefined) [OXYBUTYNIN], the IC50 entry (in experiment [1] (hek293); in experiment [3]; at Histamine H2 receptor (cho-k1); in experiment [5]; against Glucocorticoid receptor) was “Not Active” each time.
Consider `O=P(O)(O)C(O)(Cc1cccnc1)P(=O)(O)O` [RISEDRONIC ACID], for which the IC50 result (in experiment [1] (hek293); in experiment [2]; in experiment [3]; in experiment [4]; on Histamine H2 receptor (cho-k1); in experiment [5]) was “Not Active” each time. For the same compound, on Glucocorticoid receptor, the IC50 entry was “Not Active”. Further, the Ki result in experiment [2] and in experiment [4] was “Not Active” throughout.
Regarding `C=C(C)[C@H]1Cc2c(ccc3c2O[C@@H]2COc4cc(OC)c(OC)cc4[C@@H]2C3=O)O1` [ROTENONE], the half-maximal inhibitory concentration (IC50) entry (in experiment [1] (hek293); in experiment [2]; in experiment [3]; in experiment [4]; against Histamine H2 receptor (cho-k1); in experiment [5]) was “Not Active” in each case. The IC50 entry at Glucocorticoid receptor is “Not Active”. For the same compound, the inhibition constant (Ki) result in experiment [2] and in experiment [4] was “Not Active” each time.
`C#CCN(C)[C@H](C)Cc1ccccc1` [SELEGILINE]: the 50% inhibitory concentration (IC50) result (in experiment [1] (hek293); in experiment [2]; in experiment [3]; in experiment [4]; against Histamine H2 receptor (cho-k1); in experiment [5]) was “Not Active” throughout. Besides, the IC50 result on Glucocorticoid receptor was “Not Active”. For the same compound, the Ki entry in experiment [2] and in experiment [4] was “Not Active” each time.
As to `CN[C@@H]1[C@H](O)[C@H](NC)[C@H]2O[C@@]3(O)C(=O)C[C@@H](C)O[C@H]3O[C@@H]2[C@H]1O` [SPECTINOMYCIN], the IC50 entry (in experiment [1] (hek293); in experiment [2]; in experiment [3]; in experiment [4]; on Histamine H2 receptor (cho-k1); in experiment [5]) was “Not Active” each time. For the same compound, the 50% inhibitory concentration (IC50) result on Glucocorticoid receptor is given as “Not Active”. For the same compound, the Ki result in experiment [2] and in experiment [4] was “Not Active” throughout.
For `Nc1ccc(S(=O)(=O)Nc2nccs2)cc1` [SULFATHIAZOLE], the IC50 result (in experiment [1] (hek293); in experiment [2]; in experiment [3]; in experiment [4]; at Histamine H2 receptor (cho-k1); in experiment [5]) was “Not Active” each time. Also, at Glucocorticoid receptor, the half-inhibitory concentration (IC50) entry is listed as “Not Active”. Moreover, the inhibition constant Ki entry in experiment [2] and in experiment [4] was “Not Active” each time.
As to `CC(C)(C)NC[C@H](O)COc1nsnc1N1CCOCC1` [TIMOLOL], the IC50 result (in experiment [1] (hek293); in experiment [2]; in experiment [3]; in experiment [4]; against Histamine H2 receptor (cho-k1); in experiment [5]) was “Not Active” throughout. Also, the concentration for half-maximal inhibition (IC50) entry against Glucocorticoid receptor is reported as “Not Active”. In addition, the Ki result in experiment [2] and in experiment [4] was “Not Active” throughout.
As for `C[C@@H]1C[C@H]2[C@@H]3CCC4=CC(=O)C=C[C@]4(C)C3=CC[C@]2(C)[C@H]1C(=O)CN1CCN(c2cc(N3CCCC3)nc(N3CCCC3)n2)CC1` [TIRILAZAD], the half-maximal inhibitory concentration (IC50) result was “Not Active” in experiment [1] (hek293); “Not Active” in experiment [2]; “Not Active” in experiment [3]; “Not Active” in experiment [4]; 14.1 µM at Histamine H2 receptor (read-out: IC50); “Not Active” in experiment [5]. The IC50 result at Glucocorticoid receptor is on record as “Not Active”. Also, the Ki entry is “Not Active” in experiment [2], “Not Active” in experiment [4] and 13.9 µM at Histamine H2 receptor.
As to `COc1ccc(CN2CCNCC2)c(OC)c1OC` [TRIMETAZIDINE], the half-inhibitory concentration (IC50) result (in experiment [1] (hek293); in experiment [2]; in experiment [3]; in experiment [4]; against Histamine H2 receptor (cho-k1); in experiment [5]) was “Not Active” throughout. The IC50 entry on Glucocorticoid receptor is “Not Active”. In addition, the Ki entry in experiment [2] and in experiment [4] was “Not Active” each time.
For the compound `COc1cc(C(=O)NS(=O)(=O)c2ccccc2C)ccc1Cc1cn(C)c2ccc(NC(=O)OC3CCCC3)cc12` [ZAFIRLUKAST], the IC50 result in experiment [1] (hek293) was “Not Active”; in experiment [2] it was “Not Active”; in experiment [3], “Not Active”; in experiment [4], “Not Active”; on Histamine H2 receptor (cho-k1), “Not Active”; in experiment [5] (read-out: IC50), 538 nM. Also, the 50% inhibitory concentration (IC50) entry at Glucocorticoid receptor was “Not Active”. Also, the inhibitory constant (Ki) entry in experiment [2] and in experiment [4] was “Not Active” each time.

The values above are taken from ChEMBL document CHEMBL1909046, “DrugMatrix in vitro pharmacology data”.
